Data taken from US7582786B2, “Synthetic catalytic free radical scavengers useful as antioxidants for prevention and therapy of disease” (Eukarion Inc., priority 1996, dated 2009).

Tests used:
[1] = SOD activity, xanthine/xanthine oxidase with cytochrome C as acceptor (Example 2); format: biochemical; settings: for SOD: relative to C7 (C7 = 100)
Protocol: Superoxide dismutase (SOD) activity was assayed by following the inhibition of the reduction of an electron acceptor molecule in the presence of the free-radical generating system xanthine/xanthine oxidase (McCord et al. (1973) Superoxide and Superoxide Dismutase in “Oxidases and Related Redox Systems, vol. I, King et al. eds., University Park press, Baltimore, pp. 51-76). The assay mixture consisted of 50 mM sodium phosphate, pH 7.8, 120 μM xanthine, 0.2 units/ml xanthine oxidase, with acceptor molecule and salen manganese compound, as indicated. Assays were conducted at 27±0.2° C. using a water-jacketed cell holder in a Beckman DU7400 spectrophotometer. In most cases, oxidized cytochrome c, at 0.13 mg/ml, was employed as acceptor and its reduction was monitored spectrophotometrically at 550 nm. In some experiments, nitroblue tetrazolium (NBT), at 80 μM, was substituted for cytochrome c as the acceptor. NBT reduction was also monitored at 550 nm. An estimated extinction coefficient for NBT reduction, 20,800 M^−1cm^−1, determined empirically by exhaustive reduction of NBT in the reaction mixture described above, was employed where indicated. […] Conversion of xanthine to urate was calculated using ε290's of […] for urate and 4050 M^−1cm^−1 for xanthine. […] For each compound, at least four different concentrations were tested in duplicate.

[2] = Peroxidase activity, H2O2-dependent oxidation of ABTS (Example 2); format: biochemical; settings: for Peroxidase: relative to C7 (C7 = 100)
Protocol: Peroxidase activity was assayed by monitoring the hydrogen peroxide-dependent oxidation of 2,2′-azino-bis(3-ethylbenzthiazoline-6) sulfonic acid (ABTS) spectrophotometrically. Standard assay mixtures consisted of 50 mM sodium phosphate, pH 8.1, 0.9% sodium chloride, 0.5 mM ABTS, and H2O2 and salen manganese complex as indicated. Where indicated, 50 mM sodium phosphate buffers of pH 6.0 or pH 7.1 were substituted. Assays were conducted at 27±0.2° C. ABTS oxidation was monitored at 740 or 500 nm to eliminate interference by the salen manganese complexes, many of which absorb in the vicinity of the λmax of oxidized ABTS, and to avoid absorbance values that exceeded the linear range of the spectrophotometer. The amount of oxidized ABTS was estimated using an Δε740 of 20,300 M^−1cm^−1 or an Δε500 of 3400 M^−1cm^−1 calculated based upon the published molar extinction coefficient oat 405 nm (36,800).
(§1) Catalase and peroxidase activities were assayed as described in Example 2. Catalase assays contained 10 μM salen-manganese complex and 10 mM hydrogen peroxide. Peroxidase assays contained 10 μM salen-manganese complex and 0.2 mM hydrogen peroxide. Glucose-glucose oxidase toxicity assays were performed using human dermal fibroblasts as described in Example 2.

[3] = Catalase activity, conversion of H2O2 to oxygen, polarographic oxygen electrode (Example 2); format: biochemical; settings: for Catalase endpt. / Catalase rate: relative to C7 (C7 = 100)
Protocol: Catalase activity was assayed by monitoring the conversion of H2O2 to oxygen using a Clark-type polarographic oxygen electrode. The apparatus consisted of a Mini Clark Style electrode, a 600 μl Oxygen Uptake Chamber, and a Chemical Microsensor system, all obtained from Diamond General Corporation (Ann Arbor, Mich.). The electrode was calibrated by immersion in nitrogen- or air-equilibrated buffers using a Dual Chamber Calibration Cell (Diamond General,. Corp.). Catalase reaction mixtures consisted of 50 mM sodium phosphate, pH 8.1, 0.9% sodium chloride, and salen manganese complex and H2O2 at the indicated concentrations. The temperature of the water-jacketed reaction chamber, as well as the calibration buffers, was maintained at 25±0.1° C. Data were collected at 1 sec intervals and stored-on a MacIntosh II computer using data acquisition hardware and software by Strawberry Tree, Inc. (Sunnyvale, Calif.). Dissolved oxygen concentrations were calculated as described previously (Del Rio et al. (1977) Anal. Biochem. 80: 409) based on a value of 2.5×10^−4 M oxygen for air-saturated buffer at 25° C. Linearity of the dissolved oxygen measurements within the experimental range was continued by determining the amount of oxygen generated from known quantities of H2O2 during exhaustive treatment with bovine liver catalase. Stock solutions of H2O2 were prepared by diluting a commercial 30% H2O2 solution in water and the H2O2 concentrations in these stocks were determined by absorbance at 240 nm, using a molar extinction coefficient of 44 (Stadtman, E R. et al. (1990) Proc. Natl. Acad. Sci. USA 87: 384). […] In the absence of salen manganese complex, H2O2 alone typically produced an early, relatively slow increase in signal. The slope of this increased signal was not proportional to H2O2 concentration (for example in one experiment, 1 and 10 Mm H2O2 yielded apparent rates of 12 and 14 μM oxygen per min, respectively) and may be due to an electrode artifact. […] Where presented, initial rates were calculated by determining the slope of the linear portion of time dependent plots of oxygen generation, usually comprising the first five seconds of the reaction. Unless otherwise indicated, these were corrected by subtracting the rate obtained with H2O2 alone. Where presented, endpoint oxygen generated was calculated from time-dependent plots, such as those shown in FIG. 14, as the difference between the baseline oxygen concentration immediately prior to substrate addition and the maximal oxygen concentration achieved during the course of the reaction. All reactions subjected to these calculations were run for a sufficient time to ensure that oxygen generation had ceased.
as §1

[4] = test system: Human dermal fibroblasts (HF cells); assay: Cell protection assay, glucose/glucose oxidase toxicity, XTT; format: cell-based
Protocol: Human dermal fibroblasts (HF cells) were obtained from the American type tissue Culture Collection at passage 1 and cultured and propagated in a medium (HF medium) consisting of Dulbecco's Modified Eagle's Medium with 4.5 g/l D-glucose, 10% calf serum 4 mM glutamine, 50 units/ml penicillin, and 50 μg/ml streptomycin in a 37° C. humidified incubator equilibrated with 5% CO2. Cells were used at passages 5 or 6 for experiments. For cell protection assays, HF cells were seeded at a density of about 15,000 cells per cm2 onto 96-well culture plates and allowed to grow to confluence. To assess protection tert-butylhydroperoxide (t-BHP) toxicity, confluent cell layers were first treated with the indicated concentrations of test compounds dissolved in HF medium for 18 hr. The medium was then replaced with fresh medium containing test compounds and 0.5 mM tert-butylhydroperoxide (t-BHP) and cells were incubated for another 18 hr. The medium was then removed and replaced with fresh HF medium (100 μl per well) without test compounds or t-BHP. Fifty μl of XTT reagent (Boeringer Mannheim, Inc.), prepared as described by the manufacturer, was then added to each well and the plates returned to the incubator. After 2 hr., the absorbance at 490 nm was measured in a BioRad (Richmond, Calif.) Model 3550 plate-reader, using a reference wavelength of 655 nm. Control cells that had not been exposed to test compounds or toxic agents were included among the samples treated with XTT reagent. Absorbance measurements for blank wells, containing HF medium and XTT reagent but no cells, were also determined. To analyze protection from glucose/glucose oxidase toxicity, confluent cell layers were incubated with HF medium containing glucose oxidase (0.019 units/ml) along with test compounds, as indicated, for 18 hr in the tissue culture incubator. Fresh HF medium was then added and cell viability assessed using the XTT reagent as described above. For both these models, concentrations of toxic agents were selected that were reproducibly completely lethal. Cytotoxicity assessments were routinely confirmed by visual inspection of the cell layers prior to addition of the XTT reagent.
as §1

[5] = 29 units/ml bovine liver catalase added, 10 mM H2O2

Molecule	SOD [1]	Catalase endpt. [3]	Catalase rate [3]	Peroxidase [2]	other results
COc1cccc2c1[O][Mn]([O]C(C)=O)[O]c1c(cccc1OC)C=Nc1ccccc1N=C2 [Compound C48]	91	741	485	88	–
[O]=[V]1[O]c2ccccc2C=NCCN=Cc2ccccc2[O]1 [Compound C53]	Noncatalytic	0	0	0	SOD activity (in words) [1]: noncatalytic SOD activity
COc1ccc2c(c1)C=NCCN=Cc1cc(OC)ccc1[O][Mn]([O]C(C)=O)[O]2 [Compound C38]	100	–	–	129	Peroxidase rate ([2]; 10 μM salen manganese complex, 0.2 mM H2O2): 19.8 ± 0.4 μM ABTS oxidized/min; protection against glucose and glucose oxidase ([4]; 80 μM, glucose oxidase 0.019 units/ml): highly protective
CC(=O)[O][Mn]1[O]c2ccccc2C=Nc2cccnc2N=Cc2ccccc2[O]1 [Compound C43]	57	494	446	71	–
COc1cccc2c1[O][Mn]([Cl])[O]c1c(cccc1OC)C=NC1CCCCC1N=C2 (stereo not drawn) [Compound C49]	88	285	123	138	–
COc1cc2c(c(OC)c1)[O][Mn]([O]C(C)=O)[O]c1c(cc(OC)cc1OC)C=NCCN=C2 [Compound C42]	130	379	231	171	–
COc1cccc2c1[O][Mn]([O]C(C)=O)[O]c1c(cccc1OC)C=Nc1ncccc1N=C2 [Compound C45]	83	674	357	24	–
bovine liver catalase: bovine liver catalase enzyme used as reference (protein, UniProt P00432 2-527, looked up) Catalase: ADNRDPASDQMKHWKEQRAAQKPDVLTTGGGNPVGDKLNSLTVGPRGPLLVQDVVFTDEMAHFDRERIPERVVHAKGAGAFGYFEVTHDITRYSKAKVFEHIGKRTPIAVRFSTVAGESGSADTVRDPRGFAVKFYTEDGNWDLVGNNTPIFFIRDALLFPSFIHSQKRNPQTHLKDPDMVWDFWSLRPESLHQVSFLFSDRGIPDGHRHMNGYGSHTFKLVNANGEAVYCKFHYKTDQGIKNLSVEDAARLAHEDPDYGLRDLFNAIATGNYPSWTLYIQVMTFSEAEIFPFNPFDLTKVWPHGDYPLIPVGKLVLNRNPVNYFAEVEQLAFDPSNMPPGIEPSPDKMLQGRLFAYPDTHRHRLGPNYLQIPVNCPYRARVANYQRDGPMCMMDNQGGAPNYYPNSFSAPEHQPSALEHRTHFSGDVQRFNSANDDNVTQVRTFYLKVLNEEQRKRLCENIAGHLKDAQLFIQKKAVKNFSDVHPEYGSRIQALLDKYNEEKPKNAVHTYVQHGSHLSAREKANL	–	–	–	–	effect on rate of cytochrome C reduction by xanthine oxidase ([1]; 29 units/ml): did not affect; peroxidase activity toward ABTS ([2]; 19 units/ml, pH 6.0, 7.1, 8.1): no peroxidase activity; reduction of initial rate of ABTS oxidation by C7 [2, 5]: 55%; total ABTS oxidized by C7 [2, 5]: 18 µM; rate of oxygen production ([3]; 19 units/ml, 2.3 mM H2O2): ~0.33 mM/min; protection against glucose and glucose oxidase ([4]; 290 units/ml): full protection; protection against glucose and glucose oxidase ([4]; ten-fold lower dose than 290 units/ml): only partially protective

Further lines, with some results ahead:

SOD [1]	Catalase endpt. [3]	Catalase rate [3]	Molecule	Peroxidase [2]	other results
38	19	31	CC(=O)[O][Mn]1[O]c2ccccc2C(C)=NCCN=C(C)c2ccccc2[O]1 [Compound C85]	0	–
88	326	196	CCOc1cccc2c1[O][Mn]([O]C(C)=O)[O]c1c(cccc1OCC)C=NCCN=C2 [Compound C68]	162	–
200	–	–	O=[N+]([O-])[Mn]1[O]c2ccccc2C=NCCN=Cc2ccccc2[O]1 [Compound C56]	107	–
94	256	159	CCOc1cccc2c1[O][Mn]([Cl])[O]c1c(cccc1OCC)C=NCCN=C2 [Compound C67]	134	–
178	–	–	[Br][Mn]1[O]c2ccccc2C=NCCN=Cc2ccccc2[O]1 [Compound C55]	101	–
0	–	–	C1=NCCN=Cc2ccccc2[O][Zn][O]c2ccccc21 [Compound C60]	0	–
